Source: paper PMC8007111, “Novel Potent Muscarinic Receptor Antagonists: Investigation on the Nature of Lipophilic Substituents in the 5- and/or 6-Positions of the 1,4-Dioxane Nucleus” (Journal of Medicinal Chemistry, 2020)

What was measured:
hM2 mAChR = biological target: T1, hM2 mAChR (Homo sapiens, UniProt P08172); assay: [3H]NMS inhibition radioligand binding, hM2 in CHO-K1 cell membranes; details: [3H]NMS, CHO-K1 cell membranes, mean ± S.E.M.; for Ki: read-out: pKi hM2 (converted)
T1 construct: expressed in transfected cells; host or cells: CHO-K1 (membrane preparation)
T1 sequence (P08172 1-466): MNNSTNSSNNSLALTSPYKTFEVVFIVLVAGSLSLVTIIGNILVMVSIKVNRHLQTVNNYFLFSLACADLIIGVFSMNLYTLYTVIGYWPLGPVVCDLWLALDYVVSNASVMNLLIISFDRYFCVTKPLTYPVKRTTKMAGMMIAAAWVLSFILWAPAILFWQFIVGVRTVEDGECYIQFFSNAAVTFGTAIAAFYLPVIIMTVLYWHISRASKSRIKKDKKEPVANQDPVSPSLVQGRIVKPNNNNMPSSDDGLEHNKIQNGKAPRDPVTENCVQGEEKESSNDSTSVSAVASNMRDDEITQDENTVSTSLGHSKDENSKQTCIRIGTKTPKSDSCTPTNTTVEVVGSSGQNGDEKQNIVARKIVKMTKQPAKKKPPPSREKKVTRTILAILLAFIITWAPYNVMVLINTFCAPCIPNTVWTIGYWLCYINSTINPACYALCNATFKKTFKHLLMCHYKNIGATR
Experimental: (§1) CHO-K1 cells stably transfected with the human muscarinic receptor subtypes (hM1–5) were grown in Dulbecco’s modified Eagle’s medium (DMEM) with nutrient mixture F12 (DMEM/F12, 50/50), containing 10% fetal bovine serum, penicillin (100 U/mL), streptomycin (100 U/mL), L-glutamine (4 mM), and geneticin (G-418, 50 μg/mL) at 37 °C in a 5% CO2 humidified incubator. […] Serum (0.7 mL) was added to inactivate the trypsin, and the cells were spun down by centrifuging at 300g for 5 min. The cells were then resuspended in ice-cold 25 mM sodium phosphate buffer containing 5 mM MgCl2, pH 7.4 (binding buffer) and homogenized using a cell disrupter (Ultra-Turrax, setting 3, 30 s). The homogenate was sedimented by centrifugation (17,000g, 15 min). The supernatant was discarded, and the resulting membrane pellets were resuspended with Ultra-Turrax in the same buffer to give a final protein concentration of 1–2 mg/mL. The protein content was determined by the method of Bradford (1976) with bovine serum albumin (Sigma) as a standard and stored at −80 °C.
(§2) Inhibition radioligand binding assays were conducted as previously described[48],[49] with 0.2 nM [^3H]NMS in binding buffer in a final volume of 250 μL. Nonspecific binding was defined in the presence of 10 μM atropine. Briefly, membrane fractions (about 25–70 μg/mL of protein) were incubated with radioligand and unlabeled test compounds for 2 h at r.t. Bound and free radioactivity were separated by filtering the assay mixture through UniFilter GF/B plates using a FilterMate Cell Harvester (PerkinElmer Life and Analytical Science). The filter bound radioactivity was counted by a TopCount NXT Microplate Scintillation Counter (PerkinElmer Life and Analytical Science). Data (cpm) were normalized to percentage-specific binding and analyzed using a four-parameter logistic equation in GraphPad Prism 5.02; IC50 values were determined, and Ki values were calculated.[59]

hM1 mAChR = biological target: T2, hM1 mAChR (Homo sapiens, UniProt P11229); assay: [3H]NMS inhibition radioligand binding, hM1 in CHO-K1 cell membranes; details: [3H]NMS, CHO-K1 cell membranes, mean ± S.E.M.; for Ki: read-out: pKi hM1 (converted)
T2 construct: expressed in transfected cells; host or cells: CHO-K1 (membrane preparation)
T2 sequence (P11229 1-460): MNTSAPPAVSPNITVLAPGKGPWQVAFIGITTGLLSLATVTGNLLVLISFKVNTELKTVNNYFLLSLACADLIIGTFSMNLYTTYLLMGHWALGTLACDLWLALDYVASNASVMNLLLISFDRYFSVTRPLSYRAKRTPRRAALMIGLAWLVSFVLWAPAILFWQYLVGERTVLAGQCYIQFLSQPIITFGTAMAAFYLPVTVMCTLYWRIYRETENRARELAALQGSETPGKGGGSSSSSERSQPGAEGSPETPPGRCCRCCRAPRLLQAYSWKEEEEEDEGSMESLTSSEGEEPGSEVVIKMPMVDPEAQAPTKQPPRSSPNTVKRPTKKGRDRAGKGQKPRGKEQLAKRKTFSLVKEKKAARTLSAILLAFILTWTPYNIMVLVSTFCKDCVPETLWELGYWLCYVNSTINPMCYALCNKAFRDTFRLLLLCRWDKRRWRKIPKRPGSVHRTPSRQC
Experimental: as §1, §2

hM3 mAChR = biological target: T3, hM3 mAChR (Homo sapiens, UniProt P20309); assay: [3H]NMS inhibition radioligand binding, hM3 in CHO-K1 cell membranes; details: for pKi hM3 / Ki: [3H]NMS, CHO-K1 cell membranes, mean ± S.E.M.; for Ki: read-out: pKi hM3 (converted)
T3 construct: expressed in transfected cells; host or cells: CHO-K1 (membrane preparation)
T3 sequence (P20309 whole entry): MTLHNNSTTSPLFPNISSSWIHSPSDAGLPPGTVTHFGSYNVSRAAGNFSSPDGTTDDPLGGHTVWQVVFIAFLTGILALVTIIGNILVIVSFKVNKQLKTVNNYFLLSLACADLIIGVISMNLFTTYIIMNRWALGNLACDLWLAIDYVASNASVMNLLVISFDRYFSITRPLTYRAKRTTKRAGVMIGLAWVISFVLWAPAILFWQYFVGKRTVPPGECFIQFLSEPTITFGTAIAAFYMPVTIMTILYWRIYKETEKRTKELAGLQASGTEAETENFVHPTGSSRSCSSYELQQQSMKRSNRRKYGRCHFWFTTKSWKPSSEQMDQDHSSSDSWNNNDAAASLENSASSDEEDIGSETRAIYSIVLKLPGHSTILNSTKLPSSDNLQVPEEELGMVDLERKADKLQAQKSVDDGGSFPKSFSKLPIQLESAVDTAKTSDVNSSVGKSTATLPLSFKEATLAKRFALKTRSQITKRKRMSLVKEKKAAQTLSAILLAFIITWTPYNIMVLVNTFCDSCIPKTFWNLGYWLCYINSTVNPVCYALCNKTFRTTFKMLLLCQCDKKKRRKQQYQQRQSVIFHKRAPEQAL
Experimental: as §1, §2

hM5 mAChR = biological target: T4, hM5 mAChR (Homo sapiens, UniProt P08912); assay: [3H]NMS inhibition radioligand binding, hM5 in CHO-K1 cell membranes; details: [3H]NMS, CHO-K1 cell membranes, mean ± S.E.M.; for Ki: read-out: pKi hM5 (converted)
T4 construct: expressed in transfected cells; host or cells: CHO-K1 (membrane preparation)
T4 sequence (P08912 1-532): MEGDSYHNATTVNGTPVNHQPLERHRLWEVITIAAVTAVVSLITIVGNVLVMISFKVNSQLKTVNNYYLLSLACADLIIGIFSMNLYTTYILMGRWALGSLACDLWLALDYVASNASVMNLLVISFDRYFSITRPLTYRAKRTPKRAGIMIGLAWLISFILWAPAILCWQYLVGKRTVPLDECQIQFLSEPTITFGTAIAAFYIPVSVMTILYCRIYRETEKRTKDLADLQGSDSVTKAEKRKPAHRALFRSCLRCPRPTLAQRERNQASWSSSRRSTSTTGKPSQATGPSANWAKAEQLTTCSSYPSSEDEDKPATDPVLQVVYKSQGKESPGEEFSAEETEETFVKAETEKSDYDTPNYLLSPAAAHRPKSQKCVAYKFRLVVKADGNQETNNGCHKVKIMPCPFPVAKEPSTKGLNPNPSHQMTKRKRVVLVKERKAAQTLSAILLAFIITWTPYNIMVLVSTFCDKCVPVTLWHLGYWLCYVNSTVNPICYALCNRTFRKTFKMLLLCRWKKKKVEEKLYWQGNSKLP
Experimental: as §1, §2

hM4 mAChR = biological target: T5, hM4 mAChR (Homo sapiens, UniProt P08173); assay: [3H]NMS inhibition radioligand binding, hM4 in CHO-K1 cell membranes; details: [3H]NMS, CHO-K1 cell membranes, mean ± S.E.M.; for Ki: read-out: pKi hM4 (converted)
T5 construct: expressed in transfected cells; host or cells: CHO-K1 (membrane preparation)
T5 sequence (P08173 1-479): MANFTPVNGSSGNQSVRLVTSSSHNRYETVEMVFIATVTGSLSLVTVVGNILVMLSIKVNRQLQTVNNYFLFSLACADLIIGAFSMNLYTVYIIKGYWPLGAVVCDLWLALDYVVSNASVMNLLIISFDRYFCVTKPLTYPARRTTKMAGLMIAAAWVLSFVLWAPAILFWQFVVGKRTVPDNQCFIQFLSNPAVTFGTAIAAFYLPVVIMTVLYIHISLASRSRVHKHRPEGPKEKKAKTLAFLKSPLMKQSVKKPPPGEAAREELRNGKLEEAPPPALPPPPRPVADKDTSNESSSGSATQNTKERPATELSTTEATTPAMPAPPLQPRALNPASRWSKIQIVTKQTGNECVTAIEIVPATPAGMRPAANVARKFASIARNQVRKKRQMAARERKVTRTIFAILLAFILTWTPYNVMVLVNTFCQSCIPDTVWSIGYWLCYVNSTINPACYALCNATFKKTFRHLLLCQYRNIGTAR
Experimental: as §1, §2

SMILES | pKi hM2 (hM2 mAChR) | pKi hM1 (hM1 mAChR) | pKi hM3 (hM3 mAChR) | pKi hM5 (hM5 mAChR) | pKi hM4 (hM4 mAChR) | M3/M2 selectivity ratio (hM3 mAChR; from binding affinities at hM3 and hM2) | Ki (hM2 mAChR) [nM] | Ki (hM1 mAChR) [nM] | Ki (hM3 mAChR) [nM] | Ki (hM5 mAChR) [nM] | Ki (hM4 mAChR) [nM]
C[N+](C)(C)C[C@@H]1CO[C@H](c2ccc([S+]([O-])c3ccccc3)cc2)CO1.[I-] (relative stereo) [16a, 1-((2R*,5R*)-5-(4-(Phenylsulfinyl)phenyl)-1,4-dioxan-2-yl)-N,N,N-trimethylmethanaminium Iodide] | 5.52 ± 0.02 | <5 | <5 | 5.21 ± 0.08 | <5 |  |  |  |  |  | 
C[N+](C)(C)C[C@@H]1CO[C@@H](c2ccc([S+]([O-])c3ccccc3)cc2)CO1.[I-] (relative stereo) [16b, 1-((2R*,5S*)-5-(4-(Phenylsulfinyl)phenyl)-1,4-dioxan-2-yl)-N,N,N-trimethylmethanaminium Iodide] | 6.38 ± 0.10 | 5.17 ± 0.09 | 5.88 ± 0.14 | 5.72 ± 0.15 | 5.42 ± 0.02 |  |  |  |  |  | 
C[N+](C)(C)C[C@@H]1CO[C@H](c2ccc(S(=O)(=O)c3ccccc3)cc2)CO1.[I-] (relative stereo) [17a, 1-((2R*,5R*)-5-(4-(Phenylsulfonyl)phenyl)-1,4-dioxan-2-yl)-N,N,N-trimethylmethanaminium Iodide] | 6.39 ± 0.04 | <5 | 5.14 ± 0.10 | 5.05 ± 0.08 | <5 |  |  |  |  |  | 
C[N+](C)(C)C[C@@H]1CO[C@@H](c2ccc(S(=O)(=O)c3ccccc3)cc2)CO1.[I-] (relative stereo) [17b, 1-((2R*,5S*)-5-(4-(Phenylsulfonyl)phenyl)-1,4-dioxan-2-yl)-N,N,N-trimethylmethanaminium Iodide] | <5 | <5 | <5 | <5 | <5 |  |  |  |  |  | 
C[N+](C)(C)C[C@@H]1CO[C@@H](c2ccccc2)[C@H](c2ccccc2)O1.[I-] (relative stereo) [18a, 1-((2R*,5S*,6S*)-5,6-Diphenyl-1,4-dioxan-2-yl)-N,N,N-trimethylmethanaminium Iodide] | 5.72 ± 0.09 | 5.85 ± 0.09 | 5.33 ± 0.12 | 5.34 ± 0.07 | 5.25 ± 0.08 |  |  |  |  |  | 
C[N+](C)(C)C[C@@H]1CO[C@H](c2ccccc2)[C@@H](c2ccccc2)O1.[I-] (relative stereo) [18b, 1-((2R*,5R*,6R*)-5,6-Diphenyl-1,4-dioxan-2-yl)-N,N,N-trimethylmethanaminium Iodide] | 5.65 ± 0.09 | 6.30 ± 0.09 | 5.81 ± 0.10 | 5.52 ± 0.08 | 5.40 ± 0.09 |  |  |  |  |  | 
C[N+](C)(C)C[C@@H]1CO[C@@H](c2ccccc2)[C@@H](c2ccccc2)O1.[I-] (relative stereo) [18c, 1-((2R*,5S*,6R*)-5,6-Diphenyl-1,4-dioxan-2-yl)-N,N,N-trimethylmethanaminium Iodide] | 6.62 ± 0.08 | 7.19 ± 0.07 | 6.45 ± 0.01 | 6.21 ± 0.01 | 6.40 ± 0.06 |  |  |  |  |  | 
CN(C)C[C@@H]1COC[C@](c2ccccc2)(C2CCCCC2)O1 (relative stereo) [33b, 1-((2R*,6R*)-6-Cyclohexyl-6-phenyl-1,4-dioxan-2-yl)-N,N-dimethylmethanamine] | 7.88 ± 0.08 | 8.86 ± 0.16 | 8.72 ± 0.10 | 8.62 ± 0.17 | 8.62 ± 0.12 | 7.0 |  |  |  |  | 
C[N+](C)(C)C[C@@H]1COC(c2ccccc2)C(c2ccccc2)(c2ccccc2)O1 (stereo in doubt) [19a, 1-((2R*,5S*)-5,6,6-Triphenyl-1,4-dioxan-2-yl)-N,N,N-trimethylmethanaminium Iodide] |  |  |  |  |  |  | 4370 | 676 | 2000 | 3980 | 3890
C[N+](C)(C)C[C@@H]1COC(c2ccccc2)C(c2ccccc2)(c2ccccc2)O1 (stereo in doubt) [19b, 1-((2R*,5R*)-5,6,6-Triphenyl-1,4-dioxan-2-yl)-N,N,N-trimethylmethanaminium Iodide] |  |  |  |  |  |  | 2140 | 550 | 1100 | 1450 | 1170
C[N+](C)(C)C[C@@H]1COC[C@](c2ccccc2)(C2CCCCC2)O1 [(2R,6R)-(+)-3b, 1-((2R,6R)-6-Cyclohexyl-6-phenyl-1,4-dioxan-2-yl)-N,N,N-trimethylmethanaminium Iodide] | 7.86 ± 0.14 | 8.30 ± 0.25 | 7.51 ± 0.12 | 7.68 ± 0.35 | 7.45 ± 0.11 |  |  |  |  |  | 
CN(C)C[C@@H]1COC[C@](c2ccccc2)(C2CCCCC2)O1 [(2R,6R)-(+)-33b] | 7.17 ± 0.11 | 7.68 ± 0.16 | 6.73 ± 0.06 | 7.16 ± 0.27 | 7.01 ± 0.08 |  |  |  |  |  | 
